Reference: US11001591B2, “TRAF 6 inhibitors” (HELMHOLTZ ZENTRUM MUENCHEN—DEUTSCHES FORSCHUNGSZENTRUM FÜR …, priority 2016, dated 2021)

Legend:
TRAF6-UBC13 interaction = target: T1, TRAF6-UBC13 interaction (Homo sapiens, UniProt Q9Y4K3); assay: ALPHAScreen TRAF6WTStrepII-Ubc13FH interaction assay; type: binding; details: inhibition of TRAF6-UBC13 interaction
T1 construct: RING-Zincfinger1 (RZ1) domain (residues 50-159) of TRAF6 wildtype; made in house; host or cells: E. coli BL21 codon plus RIPL
T1 sequence (Q9Y4K3 50-159): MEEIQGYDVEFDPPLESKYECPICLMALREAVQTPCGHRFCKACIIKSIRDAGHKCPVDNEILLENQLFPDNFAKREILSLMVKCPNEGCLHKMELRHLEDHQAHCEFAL

clAP1 = target: T2, clAP1 (Homo sapiens, UniProt Q13490); assay: In vitro ubiquitination assay, clAP1; type: biochemical; details: RING E3 ligase; K63 chain formation
T2 construct: purchased Boston Biochem one of K-102, K-260, K-200B, K-220, K-240, K-270
T2 sequence (Q13490 whole entry): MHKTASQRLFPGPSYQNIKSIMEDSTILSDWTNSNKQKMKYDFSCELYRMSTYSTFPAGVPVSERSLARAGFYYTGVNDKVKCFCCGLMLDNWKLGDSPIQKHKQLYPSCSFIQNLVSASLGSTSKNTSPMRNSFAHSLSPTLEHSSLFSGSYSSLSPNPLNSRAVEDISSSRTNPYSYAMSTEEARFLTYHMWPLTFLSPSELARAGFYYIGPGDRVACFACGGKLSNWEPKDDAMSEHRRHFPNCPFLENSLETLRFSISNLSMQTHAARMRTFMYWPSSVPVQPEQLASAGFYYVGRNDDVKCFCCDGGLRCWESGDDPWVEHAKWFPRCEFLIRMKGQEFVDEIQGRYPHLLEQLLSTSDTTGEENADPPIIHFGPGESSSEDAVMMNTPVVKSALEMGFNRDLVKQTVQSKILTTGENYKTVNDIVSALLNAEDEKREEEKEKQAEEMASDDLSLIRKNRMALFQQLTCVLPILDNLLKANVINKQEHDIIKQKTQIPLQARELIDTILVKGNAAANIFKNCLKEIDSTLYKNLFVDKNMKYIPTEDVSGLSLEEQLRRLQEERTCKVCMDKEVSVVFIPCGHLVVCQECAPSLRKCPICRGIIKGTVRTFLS
Method: For analysis of clAP1, MDM2, TRIM63, RNF4, ITCH and E6AP mediated poly-ubiquitination, the respective ubiquitin ligase kit from Boston Biochem (K-102, K-260, K-200B, K-220, K-240 and K-270) was used. Here, reaction buffer, E1, E2 and E3 enzyme (and p53 substrate in case of MDM2) were mixed and pre-incubated with compound or DMSO for 5 minutes at room temperature before adding Mg^2+-ATP and mono-ubiquitin for reaction start. Ubiquitination was visualized by Western Blot analyses.

IL-2 and TNFα = assay: ELISA cytokine secretion of Jurkat T-cells; type: cell-based, human; details: PMA/Ionomycin
Method: (§1) For measurement of cytokine secretion, 2×10^5 Jurkat T-cells or primary CD4^+ T-cells or human PBMCs per sample were seeded, treated with compound for 6 hours and stimulated as indicated. 20 hours after stimulation, supernatants were harvested and analyzed with the IL-2, IL-1β and TNFα Ready-Set-Go! ELISA (2nd Generation) kits provided by Affymatrix eBioscience.

[1] = tested on: primary naïve CD4+ T-cells; assay: IL-2 in primary murine CD4+ T-cells; type: cell-based, mouse; details: CD3/CD28 stimulation
Method: For MEF cells, 1.2×10^5 cells per sample were seeded, treated with compound for 6 hours and stimulated with either IL-1β or TNFα for 60 minutes. […] RNA was isolated according to the manufacturer's protocol of the Qiagen RNeasy Kit (MEF cells) or the STRATEC INVITRAP® SPIN UNIVERSAL RNA MINI KIT (Jurkat T-cells). The isolation of mRNA from […] white adipose tissue from DIO mice was performed using TRIzol® Reagent according to manufacturer's instruction. To clear the isolated RNA from genomic DNA, samples (up to 5 μg RNA) were treated with RQ1 RNase-Free DNaseI (Promega) as described in the technical manual. […] For quantification of cDNA in the samples, the LightCylcer480 (Roche) and the KAPA SYBR FAST qPCR Kit were used. For relative quantification, the ΔΔCp method first described by Pfaffl (Pfaffl, M. W., A new mathematical model for relative quantification in real-time RT-PCR. Nucleic Acids Res, 2001. 29(9): p. e45) was applied. […]
as §1, with “ELISA (2nd Generation) kits provided by Affymatrix eBioscience.” left out

plasma protein = assay: Plasma protein binding; type: in vitro ADME
Method: All ADME (plasma stability, plasma protein binding, microsomal stability, Log D, Caco-2 assay, CYP450 inhibition and hERG predictor assay) as well as pharmacokinetic studies (Tmax, Cmax, AUC0-240 min, Mean Residence Time, Elimination half life, Elimination rate constant, Volume of Distribution and Clearance) of C25-140 (compound 3) were conducted by Bienta Enamine Biology Services of Bienta/Enamine Ltd.

IC50 (TRAF6-UBC13 interaction): ≤ 3 µM
auto-ubiquitination of clAP1 (clAP1): dose-dependently diminished
SMILES: Cc1nn(-c2ccc3nnc(C)n3n2)c(C)c1CCC(=O)N1CCC(Cc2ccccc2)CC1 [Compound 3, 1-(4-benzylpiperidin-1-yl)-3-(3,5-dimethyl-1-(3-methyl-[1,2,4]triazolo[4,3-b]pyridazin-6-yl)-1H-pyrazol-4-yl)propan-1-one]
cytokine secretion of IL-2 and TNFα (IL-2 and TNFα): dose-dependently decreased
IL-2 mRNA expression [1]: impaired
IL-2 protein secretion [1]: impaired
plasma protein binding (plasma protein): decent good plasma protein binding capacity
